Measured values taken from patent US20250313563A1, “GLYCOGEN SYNTHASE KINASE 3 INHIBITORS AND USES THEREOF” (The Broad Institute, Inc., priority 2022, published 2025).
Where two headings read alike, the source gives them in different places.

Key:
[1] = target: GSK3α (GST-full length GSK3α) (Homo sapiens (Human), UniProt P49840); experiment: GSK3α TR-FRET kinase assay; assay type: biochemical
Procedure, shortened: (§1)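 1 nM GST-GSK3α/β + cpd, 30 min preinc; add 200 nM biotin-pS645 GS(631-650) peptide + ATP (α 4 μM / β 2 μM, or 1 mM); 100 min RT, 50 mM Tris pH 7.5, 20 mM MgCl2, 1% DMSO; EDTA stop; SA-d2/Tb-pSer641 Ab 60 min; 665/615 ratio → IC50.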

[2] = target: GSK3b (GST-full length GSK3b) (Homo sapiens (Human), UniProt P49841); experiment: GSK3b TR-FRET kinase assay; assay type: biochemical
GSK3b (GST-full length GSK3b), sequence (P49841 whole entry): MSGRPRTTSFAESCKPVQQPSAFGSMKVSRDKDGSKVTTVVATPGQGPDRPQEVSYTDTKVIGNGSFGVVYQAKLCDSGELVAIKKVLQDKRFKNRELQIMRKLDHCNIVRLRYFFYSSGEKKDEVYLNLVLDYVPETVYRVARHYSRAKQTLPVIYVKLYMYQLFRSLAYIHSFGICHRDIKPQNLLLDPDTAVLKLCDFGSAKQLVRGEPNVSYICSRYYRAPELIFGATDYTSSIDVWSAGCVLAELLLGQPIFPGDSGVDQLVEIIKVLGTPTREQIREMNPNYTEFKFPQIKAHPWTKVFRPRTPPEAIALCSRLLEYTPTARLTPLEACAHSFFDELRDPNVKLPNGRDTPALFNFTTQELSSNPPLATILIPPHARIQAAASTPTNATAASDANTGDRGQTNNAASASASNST
Procedure, shortened: as §1

[3] = 1 nM GSK3α, 4 μM ATP, 30 minute preincubation, Table 16, read-out: GSK3-A TR-FRET BIOCHEMICAL (TR-FRET)
[4] = 1 nM GSK3b, 2 μM ATP, 30 minute preincubation, Table 16, read-out: GSK3-B TR-FRET BIOCHEMICAL (TR-FRET)
[5] = 1 nM GSK3α, 4 μM ATP, 30 minute preincubation, read-out: GSK3-A TR-FRET BIOCHEMICAL (TR-FRET), IC50
[6] = 1 nM GSK3b, 2 μM ATP, 30 minute preincubation, read-out: GSK3-B TR-FRET BIOCHEMICAL (TR-FRET), IC50
[7] = 1 nM GSK3α, 4 μM ATP, 30 minute preincubation, Table 16, read-out: GSK3-A TR-FRET BIOCHEMICAL (TR-FRET), IC50
[8] = 1 nM GSK3b, 2 μM ATP, 30 minute preincubation, Table 16, read-out: GSK3-B TR-FRET BIOCHEMICAL (TR-FRET), IC50
[9] = read-out: GSK3-A (TR-FRET 1 mM ATP), GMean, IC50, 1 mM ATP, geometric mean
[10] = read-out: GSK3-B (TR-FRET 1 mM ATP), GMean, IC50, 1 mM ATP, geometric mean
[11] = GSK3-A (TR-FRET 1 mM ATP), GMean, IC50, 1 mM ATP, geometric mean
[12] = GSK3-B (TR-FRET 1 mM ATP), GMean, IC50, 1 mM ATP, geometric mean

GSK3α (GST-full length GSK3α), sequence (P49840 whole entry): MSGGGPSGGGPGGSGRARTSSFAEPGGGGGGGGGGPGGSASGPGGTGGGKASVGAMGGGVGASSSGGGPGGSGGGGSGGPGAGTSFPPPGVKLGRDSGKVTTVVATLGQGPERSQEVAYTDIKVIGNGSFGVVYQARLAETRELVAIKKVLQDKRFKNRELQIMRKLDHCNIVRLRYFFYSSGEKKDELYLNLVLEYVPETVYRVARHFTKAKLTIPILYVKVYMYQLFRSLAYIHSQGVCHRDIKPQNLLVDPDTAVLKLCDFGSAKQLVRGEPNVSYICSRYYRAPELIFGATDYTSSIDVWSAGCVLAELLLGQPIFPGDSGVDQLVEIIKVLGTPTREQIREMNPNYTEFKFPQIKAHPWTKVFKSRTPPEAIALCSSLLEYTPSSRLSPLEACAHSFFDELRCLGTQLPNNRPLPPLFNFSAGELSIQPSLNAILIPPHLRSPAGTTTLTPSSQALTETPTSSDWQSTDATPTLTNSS

**Q.** For CCC1(c2cccc(S(=O)(=O)C3COC3)c2)C2=C(CC(C)(C)CC2=O)Nc2n[nH]cc21 (stereo not shown) [Compound 945998], which IC50 [1, 3] is on record?
**A.** ≤ 100 nM

**Q.** What about the IC50 [2, 4] of the same compound?
**A.** ≤ 100 nM

**Q.** For CC[C@]1(c2cccc(S(=O)(=O)C3CC3)c2)C2=C(CC(C)(C)NC2=O)Nc2n[nH]cc21 [Compound 945999], which IC50 [1, 5] is on record?
**A.** ≤ 100 nM

**Q.** What about the IC50 [2, 6] of the same compound?
**A.** ≤ 100 nM

**Q.** CCC1(c2cccc(S(=O)(=O)C3COC3)c2)C2=C(CC(C)(C)CC2=O)Nc2n[nH]cc21 (stereo not shown) [Compound 946003] was tested. Which IC50 [1, 3] did it give?
**A.** 100 to 1000 nM

**Q.** And the IC50 [2, 4]?
**A.** > 5000 nM

**Q.** For CCC1(c2cccc(S(=O)(=O)C3CC3)c2)C2=C(CC(C)(C)NC2=O)Nc2n[nH]cc21 (stereo not shown) [Compound 946004], which IC50 [1, 5] is on record?
**A.** 100 to 1000 nM

**Q.** What about the IC50 [2, 6] of the same compound?
**A.** > 5000 nM

**Q.** For CC[C@@]1(c2ccccc2)C2=C(CC(C)(C)C(O)C2=O)Nc2n[nH]cc21 (stereo partly shown) [Compound 946056], which IC50 [1, 3] is on record?
**A.** 100 to 1000 nM

**Q.** And the IC50 [2, 4]?
**A.** > 5000 nM

**Q.** Which IC50 [1, 3] does the source give for CC1(C)CC(=O)C2=C(C1)Nc1n[nH]cc1[C@@]21CO[C@H](c2ccccc2)C1 [Compound 946072] here?
**A.** ≤ 100 nM

**Q.** And the IC50 [2, 4]?
**A.** 100 to 1000 nM

**Q.** With CC1(C)CC(=O)C2=C(C1)Nc1n[nH]cc1[C@@]21CO[C@@H](c2ccccc2)C1 [Compound 946073] as the compound, how does the IC50 [1, 3] read?
**A.** ≤ 100 nM

**Q.** And the IC50 [2, 4]?
**A.** 100 to 1000 nM

**Q.** Which results are given for CC1(C)CC(=O)C2=C(C1)Nc1n[nH]cc1[C@]21CCC[C@H](C#N)C1 [Compound 946078]?
**A.** IC50 [1, 7]: 1000 to 5000 nM; IC50 [2, 8]: > 5000 nM

**Q.** CC1(C)CC(=O)C2=C(C1)Nc1n[nH]cc1[C@]21CCC[C@@H](C#N)C1 [Compound 946080] was tested. Which IC50 [1, 7] did it give?
**A.** 1000 to 5000 nM

**Q.** And the IC50 [2, 8]?
**A.** 1000 to 5000 nM

**Q.** For CCn1nccc1-c1cccc(C2(CC)C3=C(CC(C)(C)CC3=O)Nc3n[nH]cc32)c1 (stereo not shown) [Compound 946090], which IC50 [1, 3] is on record?
**A.** 100 to 1000 nM

**Q.** And the IC50 [2, 4]?
**A.** > 5000 nM

**Q.** CCC1(c2cccc(-c3ccnn3C(C)C)c2)C2=C(CC(C)(C)CC2=O)Nc2n[nH]cc21 (stereo not shown) [Compound 946092] was tested. Which IC50 [1, 3] did it give?
**A.** 1000 to 5000 nM

**Q.** And the IC50 [2, 4]?
**A.** > 5000 nM

**Q.** Which results are given for CCCn1nccc1-c1cccc(C2(CC)C3=C(CC(C)(C)CC3=O)Nc3n[nH]cc32)c1 (stereo not shown) [Compound 946093]?
**A.** IC50 [1, 3]: ≤ 100 nM; IC50 [1, 9]: ≤ 100 nM; IC50 [2, 4]: ≤ 100 nM; IC50 [2, 10]: 100 to 1000 nM

**Q.** How did the IC50 [1, 3] turn out when CCCn1nccc1-c1cccc(C2(CC)C3=C(CC(C)(C)CC3=O)Nc3n[nH]cc32)c1 (stereo not shown) [Compound 946094] was run?
**A.** 100 to 1000 nM

**Q.** What about the IC50 [2, 4] of the same compound?
**A.** 1000 to 5000 nM

**Q.** What does the source list for CCC1(c2cccc(-c3ccnn3CCC(C)C)c2)C2=C(CC(C)(C)CC2=O)Nc2n[nH]cc21 (stereo not shown) [Compound 946095]?
**A.** IC50 [1, 3]: ≤ 100 nM; IC50 [2, 4]: ≤ 100 nM

**Q.** Which results are given for CCC1(c2cccc(-c3ccnn3CCC(C)C)c2)C2=C(CC(C)(C)CC2=O)Nc2n[nH]cc21 (stereo not shown) [Compound 946096]?
**A.** IC50 [1, 3]: 100 to 1000 nM; IC50 [2, 4]: > 5000 nM

**Q.** What does the source list for CCC1(c2cccc(-c3cc(C)nn3C)c2)C2=C(CC(C)(C)CC2=O)Nc2n[nH]cc21 (stereo not shown) [Compound 946097]?
**A.** IC50 [1, 3]: ≤ 100 nM; IC50 [2, 4]: 100 to 1000 nM

**Q.** Which results are given for CCC1(c2cccc(-c3ccnc(C)c3)c2)C2=C(Nc3n[nH]cc31)C(F)C(C)(C)CC2=O (stereo not shown) [Compound 946101]?
**A.** IC50 [1, 3]: 1000 to 5000 nM; IC50 [2, 4]: > 5000 nM

**Q.** How did the IC50 [1, 3] turn out when CCC1(c2cccc(-c3ccnc(C)c3)c2)C2=C(Nc3n[nH]cc31)C(F)C(C)(C)CC2=O (stereo not shown) [Compound 946102] was run?
**A.** 1000 to 5000 nM

**Q.** What about the IC50 [2, 4] of the same compound?
**A.** > 5000 nM

**Q.** For CCC1(c2cccc(-c3ccnc(C)c3)c2)C2=C(Nc3n[nH]cc31)C(F)C(C)(C)CC2=O (stereo not shown) [Compound 946103], which IC50 [1, 3] is on record?
**A.** 100 to 1000 nM

**Q.** And the IC50 [1, 9]?
**A.** > 5000 nM

**Q.** And the IC50 [2, 4]?
**A.** 1000 to 5000 nM

**Q.** And the IC50 [2, 10]?
**A.** > 5000 nM

**Q.** Which IC50 [1, 3] does the source give for CCC1(c2cccc(-c3ccnc(C)c3)c2)C2=C(Nc3n[nH]cc31)C(F)C(C)(C)CC2=O (stereo not shown) [Compound 946104] here?
**A.** ≤ 100 nM

**Q.** What about the IC50 [1, 9] of the same compound?
**A.** 100 to 1000 nM

**Q.** And the IC50 [2, 4]?
**A.** 100 to 1000 nM

**Q.** What about the IC50 [2, 10] of the same compound?
**A.** > 5000 nM

**Q.** Cc1ccc(S(=O)(=O)N2CCC3(CC2)C2=C(CC(C)(C)CC2=O)Nc2n[nH]cc23)cc1Cl [Compound 947241] was tested. Which IC50 [1, 3] did it give?
**A.** ≤ 100 nM

**Q.** What about the IC50 [2, 4] of the same compound?
**A.** ≤ 100 nM

**Q.** Which results are given for CC1(C)CC(=O)C2=C(C1)Nc1n[nH]cc1C21CCN(S(=O)(=O)c2cccc(OC(F)F)c2)CC1 [Compound 947242]?
**A.** IC50 [1, 3]: ≤ 100 nM; IC50 [1, 11]: ≤ 100 nM; IC50 [2, 4]: ≤ 100 nM; IC50 [2, 12]: 100 to 1000 nM

**Q.** Which IC50 [1, 3] does the source give for CC1(C)CC(=O)C2=C(C1)Nc1n[nH]cc1C21CCN(S(=O)(=O)c2cccc(Cl)c2)CC1 [Compound 947243] here?
**A.** ≤ 100 nM

**Q.** What about the IC50 [1, 11] of the same compound?
**A.** 100 to 1000 nM

**Q.** And the IC50 [2, 4]?
**A.** ≤ 100 nM

**Q.** And the IC50 [2, 12]?
**A.** 1000 to 5000 nM

**Q.** What does the source list for CC1(C)CC(=O)C2=C(C1)Nc1n[nH]cc1C21CCN(S(=O)(=O)c2cccc(C(F)(F)F)c2)CC1 [Compound 947244]?
**A.** IC50 [1, 3]: ≤ 100 nM; IC50 [2, 4]: ≤ 100 nM
